{"source": "patent US10844081B2", "about": "“Protected organoboronic acids with tunable reactivity, and methods of use thereof” (The Board of Trustees of the University of Illinois, priority 2015, dated 2020)", "key": {"[1]": {"assay": "Solubility of boronates in room temperature THF (NMR vs internal standard)", "assay_type": "physicochemical", "procedure": "To determine the solubility of each boronate given in the following table, a concentrated solution was prepared by repeated addition to a small amount (˜200 μL) of room temperature THF in a 7-mL vial until solid no longer dissolved upon stirring. The vials were then allowed to stir at room temperature overnight. […] 100 μL of the mixture was then filtered and had solvent removed. The residue was then taken up in 500 μL DMSO-d6 containing 1,4-dimethoxybenzene (˜0.01 M) as an internal standard and transferred to an NMR tube. The concentrations of the solutions were then determined by integration relative to internal standard. In each case, the measurements are an average of two experiments."}, "[2]": {"assay": "Hydrolysis of MIDA boronate derivatives under slow release conditions (K3PO4, THF-d8/D2O, 60° C., 1H NMR)", "assay_type": "physicochemical", "conditions": "for krel, relative rate constant for hydrolysis with respect to MIDA (krel=1): 5:1 THF-d8:D2O, 7.5 eq. K3PO4, 60° C.; for boronate remaining: at 6 hours; for reduction in the rate of hydrolysis: relative to MIDA boronate", "procedure": "Compounds 1-6 (FIG. 4A) were prepared and then characterized in terms of their rates of hydrolysis under defined conditions relative to MIDA compound 4. Reaction conditions were: 5:1 THF-d8:D2O, 0.07 M in boronate, 7.5 eq. K3PO4, 60° C. Reactions were stirred for 0.5 to 2.0 h before being cooled and diluted with DMSO-d6 containing 1,4-dimethoxybenzene as an internal standard. ^1H NMR was taken immediately to determine % boronate remaining. For compounds 1, 2, and 3, n=2 and the average between the two runs is represented in the figure.\nTo each of twelve 1 mL conical vials equipped with stirring vanes was added 100 μL (0.08 M, 0.008 mmol) of a THF-d8 solution of the indicated boronate, followed by 20 μL (3.0 M, 0.06 mmol, 7.5 eq.) of a D2O solution of K3PO4. Each vial was then capped, shaken briefly to mix, and then stirred in a 60° C. heat block at 800 RPM. At the indicated times, two vials were removed from the heat block, cooled briefly under a stream of air, and then had 680 μL DMSO-d6 containing 1,4-dimethoxybenzene (˜0.008 M) as an internal standard added. The vials were then again briefly capped, shaken to mix, and the solutions were then immediately transferred to NMR tubes and spectra were taken (16 scans, d1=10 s). Time points were taken at 0, 0.5, 1, 1.5, 2.0, 4.0, and 6.0 hours. The solutions for the 0 time points were made directly in the NMR tubes, shaken, and then had spectra obtained. The percentage boronate remaining was determined by average the integration of the aryl protons (which fully resolved from the corresponding aryl protons on the parent boronic acid) across the two runs, except in the case of octyl TIDA boronate, for which the terminal methyl group of the octyl chain was used. Relative rate constants were obtained by assuming pseudo-first order kinetics and plotting the natural log of percentage boronate remaining vs time (ie. ln([boronate]/[boronate]o) vs t) (FIG. 13).\nEach time point represents the average of n=2 experiments, except in the case of the N-Cy and N-iPr MIDA, for which n=1."}, "[3]": {"conditions": "slow release hydrolysis conditions"}}, "data": [{"molecule": "Octyl TIDA Boronate [octylTIDA boronate]", "values": [{"measurement": "solubility in THF (in words)", "setting": "[1]", "value": "completely soluble"}, {"measurement": "hydrolysis after 6 hours (in words)", "setting": "[2]; after 6 hours, slow release hydrolysis conditions", "value": "no measurable hydrolysis"}]}, {"molecule": "5-Formyl-2-furanyl TIDA Boronate", "values": [{"measurement": "solubility in THF", "setting": "[1]", "value": 212, "unit": "mM"}]}, {"molecule": "p-Tolyl DimethylMIDA Boronate", "values": [{"measurement": "krel, relative rate constant for hydrolysis with respect to MIDA (krel=1)", "setting": "[2]", "value": 0.08}, {"measurement": "boronate remaining", "setting": "[2]; [3]", "value": "~80", "unit": "%"}, {"measurement": "rate of hydrolysis with added phase transfer catalyst (in words)", "setting": "[2]; free dibutyl ligand or tetrabutylammonium bromide added", "value": "hydrolyzed faster than the lone boronate"}, {"measurement": "reduction in the rate of hydrolysis", "setting": "[2]", "value": 12.5, "unit": "fold"}]}, {"molecule": "Cc1ccc([B-]23OC(=O)C(C)(C)[N+]2(C)C(C)(C)C(=O)O3)cc1", "note": "(stereo not shown) [p-tolylTIDA boronate, p-Tolyl TIDA Boronate]", "values": [{"measurement": "solubility in THF (in words)", "setting": "[1]", "value": "lack of solubility"}]}, {"molecule": "CN1CC(=O)OB(c2ccc(C=O)o2)OC(=O)C1", "note": "[5-Formyl-2-furyl MIDA boronate, reference compound]", "values": [{"measurement": "solubility in THF", "setting": "[1]", "value": "trace"}]}, {"molecule": "p-Tolyl SchMIDA Boronate", "values": [{"measurement": "krel, relative rate constant for hydrolysis with respect to MIDA (krel=1)", "setting": "[2]", "value": 0.092}, {"measurement": "reduction in the rate of hydrolysis", "setting": "[2]", "value": 10.9, "unit": "fold"}]}, {"molecule": "p-Tolyl DibutylMIDA boronate [R=nBu]", "values": [{"measurement": "boronate remaining", "setting": "[2]; [3]", "value": "about 25%"}]}, {"molecule": "p-Tolyl DiethylMIDA Boronate", "values": [{"measurement": "krel, relative rate constant for hydrolysis with respect to MIDA (krel=1)", "setting": "[2]", "value": 0.12}]}]}
